According to patent publication US20050137252A1, “Production of dihydronepetalactone” (priority 2003, published 2005):

Tested on: Aedes aegypti mosquitoes
Assay: in vitro Gupta box landing assay (insect repellency)
Details: 1% in IPA, 25 μl on Baudruche membrane over bovine blood at 37° C.; about 250 4-day-old female mosquitoes; probing recorded at 2 minute intervals over 20 minutes; mean of three replicates; compared with prior-art DHN materials
Description: The product of Example 1 is evaluated for insect repellency in a comparison test with DHN stereoisomers prepared according to prior-art methods, and against the major commercial insect repellent composition, DEET (N,N-diethyl-m-toluamide). As a control, neat iso-propanol (IPA) is employed as well. Repellency is determined against Aedes aegypti mosqutioes in the in vitro Gupta box landing assay. In this method a chamber contains 5 wells, each covered by a Baudruche (animal intestine) membrane. Each well is filled with bovine blood, containing sodium citrate (to prevent clotting) and ATP (72 mg ATP disodium salt per 26 ml of blood), and heated to 37° C. A volume of 25 μl of isopropyl alcohol (IPA) containing one test specimen or control is applied to each membrane. The concentrations are all 1% in IPA except where otherwise indicated. Controls are either neat IPA, an untreated membrane surface, or a membrane surface treated with a 1% solution of DEET. After 5 min, approximately 250 4-day-old female Aedes aegypti mosquitoes are introduced into the chamber. The number of mosquitoes probing the membranes for each treatment is recorded at 2 minute intervals over 20 minutes. Each datum represents the mean of three replicate experiments.

SMILES: CC1COC(=O)C2C(C)CCC12 (single isomer, unassigned) [DHN Structure F]
- repellent efficacy (mean number of landings over elapsed time, FIG. 3): compared well in repellent efficacy
